Here are results for 2 molecules from patent EP0079792A2, “Process for production of urease” (priority 1981, dated 1983).

Data set [1] deals with urease from Arthrobacter parafineus ATCC 15591. Briefly: Km determination, crude enzymatic solution (Example 2). In kind it is biochemical.
Substrate in data set [2]: NC(N)=O
Briefly: purified protein, by the assay type. The conditions noted are these: other: phosphate buffer (pH 7.5), purified enzyme preparate of Example 1.

With `NC(N)=O` [urea], in data set [1], the Km (usually the substrate concentration at which the rate is half of its maximum) was 20 mM.

B1: urease from Corynebacterium lilium ATCC 21644 (Corynebacterium glutamicum ATCC 13032) (protein)
chain: MSFEISRKQYTDLYGPTVGDSVRLADTELFLCVEKDYAAIGEEVAFGGGKVIRDGMGQNGTLVRDVDIPDTVITNVIVLDYTGVYKADVALRDGKIFRIGKAGNPNVMENVDIVIGVATDIIAGEGKILTAGGIDTHVHFLGTDQVNTALASGITTMIGGGTGPSQASMATTVTPGQWNTYNMLSAFEGMPMNFGILGKGHGSSKSPLAEQVRAGAIGLKIHEDWGATPSSINTALEVADDMDIQVALHSDTLNEAGFVEDTIEAIAGRVIHTFHTEGAGGGHAPDLIRVAALPNVLPASTNPTLPYTRNTVEEHLDMVMVAHHLNPDIPEDVAFADSRIRAETIAAEDVLHDMGIFSITSSDSQAMGRVGETITRTWQVADHMKRTRGSLTGDAPYNDNNRLRRFIAKYTINPAIAHGVDYVVGSVEEGKFADLVLWDPKFFGVKPDLVIKGGLMVNSLMGDSNGSIPTPQPRTLRNTWGAFGQAVSRSSITFLSQDAIDANVPDLLNLRKQIRGVRGVRNLTKRDMKLNAEMPDIRVDPETYQVFVNGELITSKPAETVPMARRYFLF
In the case of B1, in data set [2], the Michaelis-Menten constant (Km) came out at 20 mM.
